Reference: patent US20170065500A1, “Activation of Hydrogen Peroxide” (Revlon Consumer Products Corporation, priority 2015, published 2017)

Tests used:
C. xerosis = assay: Bacterial colonies on agar petri dish treated with hydrogen peroxide alone and with UV light; format: cell-based; conditions: + 265 nm UV light, 15 minutes
Description: (§1) The bacterial (organism) was plated on a standard agar petri dish and allowed to grow. The colonies were treated with hydrogen peroxide alone and with UV light for 15 minutes. The light growth means light growth is visable but not as fully developed colonies. Heavy growth was fully developed colonies to numerous to count.

S. epidermidis = assay: as above; format: cell-based; conditions: + 265 nm UV light, 15 minutes
Description: as §1

`OO` [Hydrogen peroxide] was tested, and the “bacterial growth after treatment” value (C. xerosis) was “No” and the “bacterial growth after treatment” value (S. epidermidis) was “Very”.
